The text below walks through data of patent publication US20230303599A1, “PRODRUGS OF PHOSPHONAMIDE NUCLEOTIDE ANALOGUES AND THEIR PHARMACEUTICAL USE” (priority 2020, published 2023).

Structures are written as SMILES. Values after ≈ are worked out from the molar mass of the structure shown.

For orientation: solubility (kinetic) means solubility judged after dilution from a stock solution rather than from solid.

This data set in a line: Kinetic solubility analysis. In kind it is physicochemical. To be noted: 1× PBS, 24.2 °C, aqueous buffer, kinetic from dmso stock; pH 7.4 PBS, 1% DMSO, 24-hour incubation at ambient temperature. As to the method: Example 108: Kinetic Solubility Analysis
Buffer Preparation: 0.1 N HCl: Hydrochloric acid, 0.1 N standardized solution (MP Biomedicals part number 199569). 1×PBS, pH 7.4: Phosphate Buffered Saline (PBS) solution 10× (Fisher Bioreagent part number BP399-500) 50 mL was added to approximately 450 mL HPLC grade H2O. The volume of the solution was then adjusted to 500 mL for a total dilution factor of 1:10 and a final PBS concentration of 1×.
The final DMSO concentration was 1.0% (v/v) and maximum theoretical compound concentration is 100 μM (for compound stock concentration of 10 mM). The filter plate was sealed. Following 24-hour incubation at ambient temperature (24.2-27.5° C.), the samples were vacuum filtered and the filtrates were collected in a 96 well polypropylene plate for analysis. The collection plate was sealed for analysis. Filtrates were injected into the Antek 8060 chemiluminescent nitrogen detector for quantification. The results are reported in μM.
The filtrates were quantified with respect to this calibration curve. Each calculated solubility value was corrected for background nitrogen present in the DMSO and in the medium used to prepare the sample. All reported values for compounds containing adjacent nitrogen atoms in a ring structure were increased by approximately 25%.
The compound `CCCCCCOC(=O)C(C)(C)NP(=O)(CO[C@H](C)Cn1cnc2c(NC(C)=O)ncnc21)NC(C)(C)C(=O)OCCCCCC` [Example 28, Dihexyl 2,2′-(((((1-(6-acetamido-9H-purin-9-yl)propan-2-yl)oxy)methyl)phosphoryl)bis(azanediyl))(R)-bis(2-methylpropanoate)] returned a kinetic solubility at 24 h of 55 µg/mL (≈ 82.4 µM). The result for `CCCCCCOC(=O)C(C)(C)NP(=O)(CO[C@H](C)Cn1cnc2c(NC(=O)CCC)ncnc21)NC(C)(C)C(=O)OCCCCCC` [Example 29, Dihexyl 2,2′-(((((1-(6-butyramido-9H-purin-9-yl)propan-2-yl)oxy)methyl)phosphoryl)bis(azanediyl))(R)-bis(2-methylpropanoate)] reads 26 µg/mL (≈ 37.4 µM); that for `CCCCCCOC(=O)C(C)(C)NP(=O)(CO[C@H](C)Cn1cnc2c(NC(=O)OCCCCC)ncnc21)NC(C)(C)C(=O)OCCCCCC` [Example 32, Dihexyl 2,2′-(((((1-(6-(((pentyloxy)carbonyl)amino)-9H-purin-9-yl)propan-2-yl)oxy)methyl)phosphoryl)bis(azanediyl))(R)-bis(2-methylpropanoate)], < 1 µg/mL; that for `CCCCOC(=O)C(C)(C)NP(=O)(CO[C@H](C)Cn1cnc2c(N)ncnc21)NC(C)(C)C(=O)OCCCC` [Example 38, Dibutyl 2,2′-(((((1-(6-amino-9H-purin-9-yl)propan-2-yl)oxy)methyl)phosphoryl)bis(azanediyl))(R)-bis(2-methylpropanoate)], 45 µg/mL (≈ 79 µM).

As for `C[C@H](Cn1cnc2c(N)ncnc21)OCP(=O)(NC(C)(C)C(=O)OC1CCCCC1)NC(C)(C)C(=O)OC1CCCCC1` [Example 40, Dicyclohexyl 2,2′-(((((1-(6-amino-9H-purin-9-yl)propan-2-yl)oxy)methyl)phosphoryl)bis(azanediyl))(R)-bis(2-methylpropanoate)], the kinetic solubility at 24 h was 57 µg/mL (≈ 91.7 µM).

Compound `C[C@H](Cn1cnc2c(N)ncnc21)OCP(=O)(NC(C)(C)C(=O)OC1CC2(CCC2)C1)NC(C)(C)C(=O)OC1CC2(CCC2)C1` (stereo partly drawn) [Example 41, Di(spiro[3.3]heptan-2-yl) 2,2′-(((((1-(6-amino-9H-purin-9-yl)propan-2-yl)oxy)methyl)phosphoryl)bis(azanediyl))(R)-bis(2-methylpropanoate)] showed a solubility (kinetic) at 24 h of 54 µg/mL (≈ 83.6 µM). The solubility kinetic at 24 h values of the last two compounds are within 1.5-fold of each other.

With `C[C@H](Cn1cnc2c(N)ncnc21)OCP(=O)(NC(C)(C)C(=O)OC1CC(C)(C)C1)NC(C)(C)C(=O)OC1CC(C)(C)C1` [Example 42, Bis(3,3-dimethylcyclobutyl) 2,2′-(((((1-(6-amino-9H-purin-9-yl)propan-2-yl)oxy)methyl)phosphoryl)bis(azanediyl))(R)-bis(2-methylpropanoate)], the kinetic solubility at 24 h amounted to 54 µg/mL (≈ 86.9 µM). Under `CC(C)OC(=O)C(C)(C)NP(=O)(CO[C@H](C)Cn1cnc2c(N)ncnc21)NC(C)(C)C(=O)OC(C)C` [Example 43, Diisopropyl 2,2′-(((((1-(6-amino-9H-purin-9-yl)propan-2-yl)oxy)methyl)phosphoryl)bis(azanediyl))(R)-bis(2-methylpropanoate)] stands 53 µg/mL (≈ 97.9 µM). `C[C@H](Cn1cnc2c(N)ncnc21)OCP(=O)(NC(C)(C)C(=O)OC1CCC(C)(C)CC1)NC(C)(C)C(=O)OC1CCC(C)(C)CC1` [Example 44, Bis(4,4-dimethylcyclohexyl) 2,2′-(((((1-(6-amino-9H-purin-9-yl)propan-2-yl)oxy)methyl)phosphoryl)bis(azanediyl))(R)-bis(2-methylpropanoate)] registered a solubility (kinetic) at 24 h of 10 µg/mL (≈ 14.8 µM). The compound `C[C@H](Cn1cnc2c(N)ncnc21)OCP(=O)(NC(C)(C)C(=O)OCC1CCCC1)NC(C)(C)C(=O)OCC1CCCC1` [Example 45, Bis(cyclopentylmethyl) 2,2′-(((((1-(6-amino-9H-purin-9-yl)propan-2-yl)oxy)methyl)phosphoryl)bis(azanediyl))(R)-bis(2-methylpropanoate)] had a kinetic solubility at 24 h of 64 µg/mL (≈ 103 µM). Under `C[C@H](Cn1cnc2c(N)ncnc21)OCP(=O)(NC(C)(C)C(=O)OC1CCC1)NC(C)(C)C(=O)OC1CCC1` [Example 47, Dicyclobutyl 2,2′-(((((1-(6-amino-9H-purin-9-yl)propan-2-yl)oxy)methyl)phosphoryl)bis(azanediyl))(R)-bis(2-methylpropanoate)] stands 72 µg/mL (≈ 127 µM); under `CC(C)CCCCOC(=O)C(C)(C)NP(=O)(CO[C@H](C)Cn1cnc2c(N)ncnc21)NC(C)(C)C(=O)OCCCCC(C)C` [Example 68, Bis(5-methylhexyl) 2,2′-(((((1-(6-amino-9H-purin-9-yl)propan-2-yl)oxy)methyl)phosphoryl)bis(azanediyl))(R)-bis(2-methylpropanoate)], 3 µg/mL (≈ 4.59 µM). In the case of `CCCC(CCC)COC(=O)C(C)(C)NP(=O)(CO[C@H](C)Cn1cnc2c(N)ncnc21)NC(C)(C)C(=O)OCC(CCC)CCC` [Example 69, Bis(2-propylpentyl) 2,2′-(((((1-(6-amino-9H-purin-9-yl)propan-2-yl)oxy)methyl)phosphoryl)bis(azanediyl))(R)-bis(2-methylpropanoate)], the solubility (kinetic) at 24 h amounted to 1 µg/mL (≈ 1.47 µM). Turning to `CCC(CC)COC(=O)C(C)(C)N[P@@](=O)(CO[C@H](C)Cn1cnc2c(N)ncnc21)NC1(C(=O)OCC(CC)CC)CC1` [Example 72, 2-Ethylbutyl 1-(((S)-((((R)-1-(6-amino-9H-purin-9-yl)propan-2-yl)oxy)methyl)((1-(2-ethylbutoxy)-2-methyl-1-oxopropan-2-yl)amino)phosphoryl)amino)cyclopropane-1-carboxylate], the kinetic solubility at 24 h was found to be 35 µg/mL (≈ 56.1 µM).

`CCCCCCOC(=O)C(C)(C)NP(=O)(CO[C@H](C)Cn1cnc2c(N)ncnc21)NC(C)(C)C(=O)OCC1(F)CC1` (stereo partly drawn) [Example 78, (1-Fluorocyclopropyl)methyl 2-((((((R)-1-(6-amino-9H-purin-9-yl)propan-2-yl)oxy)methyl)((1-(hexyloxy)-2-methyl-1-oxopropan-2-yl)amino)phosphoryl)amino)-2-methylpropanoate] had a kinetic solubility at 24 h of 60 µg/mL (≈ 97.8 µM). Under `CCCCCCOC(=O)C(C)(C)NP(=O)(CO[C@H](C)Cn1cnc2c(N)ncnc21)NC(C)(C)C(=O)OCC(C)(C)OC` (stereo partly drawn) [Example 79, Hexyl 2-((((((R)-1-(6-amino-9H-purin-9-yl)propan-2-yl)oxy)methyl)((1-(2-methoxy-2-methylpropoxy)-2-methyl-1-oxopropan-2-yl)amino)phosphoryl)amino)-2-methylpropanoate] stands 68 µg/mL (≈ 108 µM); under `CCCCCCOC(=O)C(C)(C)NP(=O)(CO[C@H](C)Cn1cnc2c(N)ncnc21)NC(C)(C)C(=O)OCC12CCC(CC1)C2` (stereo partly drawn) [Example 80, Bicyclo[2.2.1]heptan-1-ylmethyl 2-((((((R)-1-(6-amino-9H-purin-9-yl)propan-2-yl)oxy)methyl)((1-(hexyloxy)-2-methyl-1-oxopropan-2-yl)amino)phosphoryl)amino)-2-methylpropanoate], 56 µg/mL (≈ 86.2 µM). Under `CCCCCCOC(=O)C(C)(C)NP(=O)(CO[C@H](C)Cn1cnc2c(N)ncnc21)NC(C)(C)C(=O)OC(C)C1CC1` (stereo partly drawn) [Example 81, 1-Cyclopropylethyl 2-((((((R)-1-(6-amino-9H-purin-9-yl)propan-2-yl)oxy)methyl)((1-(hexyloxy)-2-methyl-1-oxopropan-2-yl)amino)phosphoryl)amino)-2-methylpropanoate] stands 61 µg/mL (≈ 100 µM); under `CCCCCCOC(=O)C(C)(C)NP(=O)(CO[C@H](C)Cn1cnc2c(NCc3oc(=O)oc3C)ncnc21)NC(C)(C)C(=O)OCCCCCC` [Example 82, Dihexyl 2,2′-(((((1-(6-(((5-methyl-2-oxo-1,3-dioxol-4-yl)methyl)amino)-9H-purin-9-yl)propan-2-yl)oxy)methyl)phosphoryl)bis(azanediyl))(R)-bis(2-methylpropanoate)], 10 µg/mL (≈ 13.6 µM); under `C[C@H](Cn1cnc2c(N)ncnc21)OCP(=O)(NC(C)(C)C(=O)O[C@H]1C[C@@H](c2ccccc2)C1)NC(C)(C)C(=O)O[C@H]1C[C@@H](c2ccccc2)C1` [Example 85, Bis((1s,3S)-3-phenylcyclobutyl) 2,2′-((((((R)-1-(6-amino-9H-purin-9-yl)propan-2-yl)oxy)methyl)phosphoryl)bis(azanediyl))bis(2-methylpropanoate)], 6 µg/mL (≈ 8.36 µM).
